# According to US7956074B2, “Aryl-isoxazolo-4-yl-oxadiazole derivatives” (Hoffman-La Roche Inc., priority 2005, dated 2011):
# Target: T1, GABA A receptor α5β3γ2 (Homo sapiens, UniProt P18507+P31644)
# T1 construct: expressed in transfected cells; host or cells: HEK293 cells, transiently transfected; membranes prepared
# Assay: [3H]flumazenil competition binding, human GABA A α5β3γ2
# Details: competition for [3H]flumazenil (0.5 nM) binding, HEK293 cells expressing human (transiently transfected) α5β3γ2; means of two determinations; read-out: Ki[nM] hα5
# Summary of the method: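 HEK293 membranes expressing GABA-A receptors (human transiently, rat stably transfected) were used for [3H]flumazenil competition in Krebs-tris buffer, pH 7.5. Incubation ran 1 h at 4 °C to equilibrium, followed by filtration and scintillation counting. Ki values are means of two determinations.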
row,SMILES,Ki [nM]
1,"Cc1onc(-c2ccccc2)c1-c1nnc(-c2ccc(N3CCSCC3)nc2)o1 [Example 138, 4-{5-[5-(5-Methyl-3-phenyl-isoxazol-4-yl)-[1,3,4]oxadiazol-2-yl]-pyridin-2-yl}-thiomorpholine]",31
2,"Cc1onc(-c2ccccc2)c1-c1nnc(-c2ccccc2OCc2ccccc2)o1 [Example 46, 2-(2-Benzyloxy-phenyl)-5-(5-methyl-3-phenyl-isoxazol-4-yl)-[1,3,4]oxadiazole]",255
3,"Cc1onc(-c2ccccc2)c1-c1nnc(-c2cc(F)c(N3CCSCC3)cc2F)o1 [Example 119, 4-{2,5-Difluoro-4-[5-(5-methyl-3-phenyl-isoxazol-4-yl)-[1,3,4]oxadiazol-2-yl]-phenyl}-thiomorpholine]",24.3
4,"Cc1onc(-c2ccccc2)c1-c1nnc(-c2cccc3[nH]cnc23)o1 [Example 125, 4-[5-(5-Methyl-3-phenyl-isoxazol-4-yl)-[1,3,4]oxadiazol-2-yl]-1H-benzoimidazole]",26.8
5,"Cc1onc(-c2ccccc2)c1-c1nnc(-c2ccc(N3CCSCC3)cc2)o1 [Example 37, 4-{4-[5-(5-Methyl-3-phenyl-isoxazol-4-yl)-[1,3,4]oxadiazol-2-yl]-phenyl}-thiomorpholine]",22.9
6,"COc1ncccc1-c1nnc(-c2c(-c3ccccc3)noc2C)o1 [Example 93, 2-Methoxy-3-[5-(5-methyl-3-phenyl-isoxazol-4-yl)-[1,3,4]oxadiazol-2-yl]-pyridine]",22.8
7,"COc1cc(C(F)(F)F)ccc1-c1nnc(-c2c(-c3ccccc3)noc2C)o1 [Example 49, 2-(2-Methoxy-4-trifluoromethyl-phenyl)-5-(5-methyl-3-phenyl-isoxazol-4-yl)-[1,3,4]oxadiazole]",39.7
8,"COc1cc(F)ccc1-c1nnc(-c2c(-c3ccccc3)noc2C(C)C)o1 [Example 61, 2-(4-Fluoro-2-methoxy-phenyl)-5-(5-isopropyl-3-phenyl-isoxazol-4-yl)-[1,3,4]oxadiazole]",17.7

# Stronger by Ki, values ahead:
row,Ki [nM],SMILES
1,6,"COc1cc(N2CCOCC2)c(F)cc1-c1nnc(-c2c(-c3ccccc3)noc2C)o1 [Example 114, 4-{2-Fluoro-5-methoxy-4-[5-(5-methyl-3-phenyl-isoxazol-4-yl)-[1,3,4]oxadiazol-2-yl]-phenyl}-morpholine]"
2,15.5,"COc1cc(N2CCN(C)CC2)ccc1-c1nnc(-c2c(-c3ccccc3)noc2C)o1 [Example 67, 1-{3-Methoxy-4-[5-(5-methyl-3-phenyl-isoxazol-4-yl)-[1,3,4]oxadiazol-2-yl]-phenyl}-4-methyl-piperazine]"
3,16.4,"COc1ccccc1-c1nnc(-c2c(-c3ccccc3)noc2C)o1 [Example 4, 2-(2-Methoxy-phenyl)-5-(5-methyl-3-phenyl-isoxazol-4-yl)-[1,3,4]oxadiazole]"
4,4.5,"COc1cc(NCCSC)c(F)cc1-c1nnc(-c2c(-c3ccccc3)noc2C)o1 [Example 126, {2-Fluoro-5-methoxy-4-[5-(5-methyl-3-phenyl-isoxazol-4-yl)-[1,3,4]oxadiazol-2-yl]-phenyl}-(2-methylsulfanyl-ethyl)-amine]"
5,15.3,"COc1cc(NC2CCN(C)CC2)ccc1-c1nnc(-c2c(-c3ccccc3)noc2C)o1 [Example 65, {3-Methoxy-4-[5-(5-methyl-3-phenyl-isoxazol-4-yl)-[1,3,4]oxadiazol-2-yl]-phenyl}-(1-methyl-piperidin-4-yl)-amine]"
6,8.2,"COCCNc1ccc(-c2nnc(-c3c(-c4ccccc4)noc3C)o2)c(OC)c1 [Example 124, (2-Methoxy-ethyl)-{3-methoxy-4-[5-(5-methyl-3-phenyl-isoxazol-4-yl)-[1,3,4]oxadiazol-2-yl]-phenyl}-amine]"
7,15.3,"Cc1onc(-c2ccccc2)c1-c1nnc(-c2ccc(N3CCOCC3)nc2)o1 [Example 136, 4-{5-[5-(5-Methyl-3-phenyl-isoxazol-4-yl)-[1,3,4]oxadiazol-2-yl]-pyridin-2-yl}-morpholine]"
